For the assay, the target named is T1, human mAChR M4 (Homo sapiens, UniProt P08173).
T1 construct: expressed in transfected cells; host or cells: CHO-K1 (American Type Culture Collection), stably expressing hM4 and Gqi5
T1 sequence (P08173 1-479): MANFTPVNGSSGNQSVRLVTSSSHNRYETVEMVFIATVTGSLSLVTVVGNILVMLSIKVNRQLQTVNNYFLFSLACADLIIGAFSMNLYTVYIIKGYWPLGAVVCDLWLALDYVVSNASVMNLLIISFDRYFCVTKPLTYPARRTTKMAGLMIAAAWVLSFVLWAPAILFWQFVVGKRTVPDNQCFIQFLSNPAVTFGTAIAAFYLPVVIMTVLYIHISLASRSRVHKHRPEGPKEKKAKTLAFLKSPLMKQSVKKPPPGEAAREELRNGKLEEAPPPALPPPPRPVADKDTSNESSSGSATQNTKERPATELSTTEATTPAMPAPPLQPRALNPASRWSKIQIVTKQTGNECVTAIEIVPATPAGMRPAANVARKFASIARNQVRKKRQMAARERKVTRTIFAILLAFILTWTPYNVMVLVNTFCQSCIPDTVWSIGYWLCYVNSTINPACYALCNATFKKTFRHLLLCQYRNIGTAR
Nature of the assay: mAChR M4 cell-based functional assay: calcium mobilization (Fluo-4, FDSS), potentiation of EC20 acetylcholine response in hM4-Gqi5 CHO-K1 cells. Particulars: human M4; for Emax at 30 µM: CHO-K1, % ACh maximum at 30 μM; for EC50: potentiation of EC20 acetylcholine response, calcium mobilization. In short, it runs like this:
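CHO-K1 cells stably co-expressing human M4 and chimeric Gqi5, loaded with Fluo-4 AM (50 min, 37 °C). Compounds in 11-point 1:3 series added first; EC20 acetylcholine added at 144 s and again at 230 s. Calcium read on FDSS at 1 Hz; EC50 and Emax from four-parameter logistic fit of potentiated EC20 response.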

Molecules are shown by their SMILES.

24 molecules from US20250101041A1, “POSITIVE ALLOSTERIC MODULATORS OF THE MUSCARINIC ACETYLCHOLINE RECEPTOR M4” (Vanderbilt University, priority 2022, published 2025) can be followed below.

Turning to `Cc1cc(=O)n2nc(N3CCc4ncc(-c5ccsc5)cc4C3)c(C)cc2n1` [Compound 1-300, 2,8-dimethyl-7-(3-(thiophen-3-yl)-7,8-dihydro-1,6-naphthyridin-6(5H)-yl)-4H-pyrimido[1,2-b]pyridazin-4-one], the Emax at 30 µM was determined as 87% and the EC50 worked out at 122 nM.

As to `Cc1cc(=O)n2nc(N3CCc4ncc(-c5ccco5)cc4C3)c(C)cc2n1` [Compound 1-301, 7-(3-(furan-2-yl)-7,8-dihydro-1,6-naphthyridin-6(5H)-yl)-2,8-dimethyl-4H-pyrimido[1,2-b]pyridazin-4-one], the maximal response (Emax) at 30 µM worked out at 91% and the concentration giving a half-maximal response (EC50) was 111 nM. Taken in the same sequence, the figures for `Cc1cc(=O)n2nc(N3CCc4ncc(-c5ccc(C)o5)cc4C3)c(C)cc2n1` [Compound 1-302, 2,8-dimethyl-7-(3-(5-methylfuran-2-yl)-7,8-dihydro-1,6-naphthyridin-6(5H)-yl)-4H-pyrimido[1,2-b] pyridazin-4-one] were 85% and 188 nM.

As for `COc1ccsc1-c1cnc2c(c1)CN(c1nn3c(=O)cc(C)nc3c(C)c1C)CC2` [Compound 1-303, 7-(3-(3-methoxythiophen-2-yl)-7,8-dihydro-1,6-naphthyridin-6(5H)-yl)-2,8,9-trimethyl-4H-pyrimido[1,2-b]pyridazin-4-one], the Emax at 30 µM came to 96% and the half-maximal effective concentration (EC50) came to 192 nM. Consider `Cc1cc(=O)n2nc(N3CCc4ncc(-c5ccsc5)cc4C3)c(C)c(C)c2n1` [Compound 1-304, 2,8,9-trimethyl-7-(3-(thiophen-3-yl)-7,8-dihydro-1,6-naphthyridin-6(5H)-yl)-4H-pyrimido[1,2-b]pyridazin-4-one], for which the Emax at 30 µM was found to be 89% and the EC50 came to 169 nM. With `Cc1cc(=O)n2nc(N3CCc4ncc(-c5ccc(C)o5)cc4C3)c(C)c(C)c2n1` [Compound 1-305, 2,8,9-trimethyl-7-(3-(5-methylfuran-2-yl)-7,8-dihydro-1,6-naphthyridin-6(5H)-yl)-4H-pyrimido[1,2-b] pyridazin-4-one], the maximum response (Emax) at 30 µM is 88% and the EC50 was found to be 315 nM. The matching figures for `Cc1c(N2CCc3ncc(-c4cccc(F)c4)cc3C2)nn2c(=O)cc(C(F)F)nc2c1C` [Compound 1-306, 2-(difluoromethyl)-7-(3-(3-fluorophenyl)-7,8-dihydro-1,6-naphthyridin-6(5H)-yl)-8,9-dimethyl-4H-pyrimido[1,2-b]pyridazin-4-one]: 89% and 451 nM. For the molecule `Cc1cnccc1-c1cnc2c(c1)CN(c1nn3c(=O)cc(C(F)F)nc3c(C)c1C)CC2` [Compound 1-307, 2-(difluoromethyl)-8,9-dimethyl-7-(3-(3-methylpyridin-4-yl)-7,8-dihydro-1,6-naphthyridin-6(5H)-yl)-4H-pyrimido[1,2-b]pyridazin-4-one], the Emax at 30 µM is 88% and the EC50 was found to be 69 nM.

With `Cc1c(N2CCc3ncc(-c4cnn(CCN(C)C)c4)cc3C2)nn2c(=O)cc(C(F)F)nc2c1C` [Compound 1-308, 2-(difluoromethyl)-7-(3-(1-(2-(dimethylamino)ethyl)-1H-pyrazol-4-yl)-7,8-dihydro-1,6-naphthyridin-6(5H)-yl)-8,9-dimethyl-4H-pyrimido[1,2-b]pyridazin-4-one], the maximal effect (Emax) at 30 µM came to 78% and the EC50 is 313 nM.

Consider `Cc1c(N2CCc3ncc(-c4cnn(C5COC5)c4)cc3C2)nn2c(=O)cc(C(F)F)nc2c1C` [Compound 1-309, 2-(difluoromethyl)-8,9-dimethyl-7-(3-(1-(oxetan-3-yl)-1H-pyrazol-4-yl)-7,8-dihydro-1,6-naphthyridin-6(5H)-yl)-4H-pyrimido[1,2-b]pyridazin-4-one], for which the Emax at 30 µM was determined as 88% and the EC50 was 203 nM.

With `Cc1nn(C)c(C)c1-c1cnc2c(c1)CN(c1nn3c(=O)cc(C(F)F)nc3c(C)c1C)CC2` [Compound 1-310, 2-(difluoromethyl)-8,9-dimethyl-7-(3-(1,3,5-trimethyl-1H-pyrazol-4-yl)-7,8-dihydro-1,6-naphthyridin-6(5H)-yl)-4H-pyrimido[1,2-b]pyridazin-4-one], the Emax at 30 µM was 86% and the half-maximal effective concentration (EC50) amounted to 136 nM.

Turning to `COc1ccsc1-c1cnc2c(c1)CN(c1nn3c(=O)cc(C(F)F)nc3c(C)c1C)CC2` [Compound 1-311, 2-(difluoromethyl)-7-(3-(3-methoxythiophen-2-yl)-7,8-dihydro-1,6-naphthyridin-6(5H)-yl)-8,9-dimethyl-4H-pyrimido[1,2-b]pyridazin-4-one], the Emax at 30 µM worked out at 79% and the EC50 stood at 1270 nM. Taken in the same sequence, the figures for `Cc1c(N2CCc3ncc(-c4cccs4)cc3C2)nn2c(=O)cc(C(F)F)nc2c1C` [Compound 1-312, 2-(difluoromethyl)-8,9-dimethyl-7-(3-(thiophen-2-yl)-7,8-dihydro-1,6-naphthyridin-6(5H)-yl)-4H-pyrimido[1,2-b]pyridazin-4-one] were 82% and 158 nM. Take `COCc1cc(=O)n2nc(N3CCc4ncc(C(F)(F)F)cc4C3)c(C)cc2n1` [Compound 1-313, 2-(methoxymethyl)-8-methyl-7-(3-(trifluoromethyl)-7,8-dihydro-1,6-naphthyridin-6(5H)-yl)-4H-pyrimido[1,2-b]pyridazin-4-one]: the Emax at 30 µM was determined as 96% and the 50% effective concentration (EC50) worked out at 503 nM. The matching figures for `COCc1cc(=O)n2nc(N3CCc4ncc(-c5ccc(C)nc5)cc4C3)c(C)cc2n1` [Compound 1-314, 2-(methoxymethyl)-8-methyl-7-(3-(6-methylpyridin-3-yl)-7,8-dihydro-1,6-naphthyridin-6(5H)-yl)-4H-pyrimido[1,2-b]pyridazin-4-one]: 96% and 109 nM.

As for `Cc1cc2nccc(=O)n2nc1N1CCc2ncc(-c3ccc(OC(F)F)nc3)cc2C1` [Compound 1-315, 7-(3-(6-(difluoromethoxy)pyridin-3-yl)-7,8-dihydro-1,6-naphthyridin-6(5H)-yl)-8-methyl-4H-pyrimido[1,2-b]pyridazin-4-one], the Emax at 30 µM came to 71% and the EC50 was 448 nM. In the case of `Cc1cc2nccc(=O)n2nc1N1CCc2ncc(-c3ccc(C#N)nc3)cc2C1` [Compound 1-316, 5-(6-(8-methyl-4-oxo-4H-pyrimido[1,2-b]pyridazin-7-yl)-5,6,7,8-tetrahydro-1,6-naphthyridin-3-yl)picolinonitrile], the maximal response (Emax) at 30 µM was 71%. `Cc1cc(OC(F)F)ncc1-c1cnc2c(c1)CN(c1nn3c(=O)ccnc3cc1C)CC2` [Compound 1-317, 7-(3-(6-(difluoromethoxy)-4-methylpyridin-3-yl)-7,8-dihydro-1,6-naphthyridin-6(5H)-yl)-8-methyl-4H-pyrimido[1,2-b]pyridazin-4-one]: the Emax at 30 µM worked out at 70% and the EC50 was 716 nM. Taken in the same sequence, the figures for `Cc1cc2nccc(=O)n2nc1N1CCc2ncc(-c3ccc(F)nc3F)cc2C1` [Compound 1-318, 7-(3-(2,6-difluoropyridin-3-yl)-7,8-dihydro-1,6-naphthyridin-6(5H)-yl)-8-methyl-4H-pyrimido [1,2-b]pyridazin-4-one] were 55% and 2400 nM. With `Cc1cc2nccc(=O)n2nc1N1CCc2ncc(-c3cnccc3C#N)cc2C1` [Compound 1-319, 3-(6-(8-methyl-4-oxo-4H-pyrimido[1,2-b]pyridazin-7-yl)-5,6,7,8-tetrahydro-1,6-naphthyridin-3-yl)isonicotinonitrile], the Emax at 30 µM was found to be 34% and the EC50 was 2640 nM. Taken in the same sequence, the figures for `COCc1cc(=O)n2nc(N3CCc4ncc(-c5cc(F)ncc5F)cc4C3)c(C)cc2n1` [Compound 1-320, 7-(3-(2,5-difluoropyridin-4-yl)-7,8-dihydro-1,6-naphthyridin-6(5H)-yl)-2-(methoxymethyl)-8-methyl-4H-pyrimido[1,2-b] pyridazin-4-one] were 77% and 1470 nM. In the case of `Cc1cc2nccc(=O)n2nc1N1CCc2ncc(-c3cn(C)nn3)cc2C1` [Compound 1-321, 8-methyl-7-(3-(1-methyl-1H-1,2,3-triazol-4-yl)-7,8-dihydro-1,6-naphthyridin-6(5H)-yl)-4H-pyrimido[1,2-b]pyridazin-4-one], the Emax at 30 µM stood at 61% and the EC50 amounted to 2180 nM. Taken in the same sequence, the figures for `COCc1cc(=O)n2nc(N3CCc4ncc(-c5ccc(F)nc5)cc4C3)c(C)cc2n1` [Compound 1-322, 7-(3-(6-fluoropyridin-3-yl)-7,8-dihydro-1,6-naphthyridin-6(5H)-yl)-2-(methoxymethyl)-8-methyl-4H-pyrimido[1,2-b] pyridazin-4-one] were 82% and 374 nM. The matching figures for `Cc1cc2nccc(=O)n2nc1N1CCc2ncc(-c3cnc(C)n3C)cc2C1` [Compound 1-323, 7-(3-(1,2-dimethyl-1H-imidazol-5-yl)-7,8-dihydro-1,6-naphthyridin-6(5H)-yl)-8-methyl-4H-pyrimido[1,2-b]pyridazin-4-one]: 71% and 1040 nM.
